Results on 22 molecules are retold here after patent US9428499B2, “Heterocyclyl compounds as MEK inhibitors” (LUPIN LIMITED, priority 2012, dated 2016).

Assay [1] deals with MEK phosphorylation (S218 and S222). The assay can be described thus: Analysis of B-Raf-mediated MEK phosphorylation (Alphascreen SureFire Phospho-MEK). It counts as cell-based, human. As to conditions: read-out: % Inhibition of MEK phosphorylation, human melanoma cells, 1 h, read-out: % Inhibition of MBK phosphorylation; for inhibition at 0.001 µM: 1 nM; for inhibition at 0.01 µM: 10 nM; for inhibition at 0.1 µM: 100 nM. On the procedure: This assay was carried out with human melanoma cells. Cells were treated for 1 h with various concentrations of test compounds. MEK phosphorylation (S218 and S222) analysis was performed using the Alphascreen SureFire Phospho-MEK Kit (Perkin Elmer), by following the manufacturer's instructions. % inhibition of […] phosphorylation was determined as: 100−{(RFU test−RFU lysis buffer control)/(RFU vehicle treated control−RFU lysis buffer control)}×100.

Assay [2] concerns ERK phosphorylation. The assay is described as follows: Analysis of ERK phosphorylation (Alphascreen SureFire Phospho-ERK 1/2). It counts as cell-based, human and mouse. The note with it: cells treated for 1 h; human melanoma cells, human and mouse colon cancer cells; read-out: Minimum concentration (nM) required for ≧80% inhibition of pERK. A digest of the protocol: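 Human melanoma and human and mouse colon cancer cells were exposed to compounds for 1 h. Phospho-ERK1/2 was read by AlphaScreen SureFire. Percent inhibition was calculated from RFU relative to vehicle-treated and lysis-buffer controls.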
In general terms: Bead proximity is the source of the signal in Alpha formats.

Bounds are passed on as bounds.

Consider `Cc1c(=O)n(C)c(Nc2ccc(I)cc2F)c2c(=O)[nH]c(=O)n(-c3cccc(C(=O)NC4CC4)c3)c12` [Compound 2, N-cyclopropyl-3-(5-((2-fluoro-4-iodophenyl)amino)-6,8-dimethyl-2,4,7-trioxo-3,4,6,7-tetrahydropyrido[4,3-d]pyrimidin-1(2H)-yl)benzamide], for which, in assay [1], the inhibition at 0.001 µM stood at 72.2%, the inhibition at 0.01 µM came to 93.4% and the inhibition at 0.1 µM came out at 96.4%. In assay [2], the IC80 came to 0.01 nM.
On the same counts, the results for `CNC(=O)COc1cccc(-n2c(=O)[nH]c(=O)c3c(Nc4ccc(I)cc4F)n(C)c(=O)c(C)c32)c1` [Compound 5, 2-(3-(5-((2-fluoro-4-iodophenyl)amino)-6,8-dimethyl-2,4,7-trioxo-3,4,6,7-tetrahydropyrido[4,3-d]pyrimidin-1(2H)-yl)phenoxy)-N-methylacetamide] are 93.9%, 97.4%, 97.4% and 0.1 to 0.9 nM.
The like results for `Cc1c(=O)n(C)c(Nc2ccc(I)cc2F)c2c(=O)[nH]c(=O)n(-c3cccc(OCC(N)=O)c3)c12` [Compound 16, 2-(3-(5-((2-fluoro-4-iodophenyl)amino)-6,8-dimethyl-2,4,7-trioxo-3,4,6,7-tetrahydropyrido[4,3-d]pyrimidin-1(2H)-yl)phenoxy)acetamide] were, in that order, 89.2%, 93.3%, 94.7% and 1 to 3 nM.
On the same counts, the results for `Cc1c(=O)n(C)c(Nc2ccc(I)cc2F)c2c(=O)n(C3CC3)c(=O)n(-c3cccc(CC(=O)N(C)C)c3)c12` [Compound 29, 2-(3-(3-cyclopropyl-5-((2-fluoro-4-iodophenyl)amino)-6,8-dimethyl-2,4,7-trioxo-3,4,6,7-tetrahydropyrido[4,3-d]pyrimidin-1(2H)-yl)phenyl)-N,N-dimethylacetamide] are 52.9%, 72.9%, 76.4% and 0.1 to 0.9 nM.
Consider `Cc1c(=O)n(C)c(Nc2ccc(I)cc2F)c2c(=O)n(C3CC3)c(=O)n(-c3cccc(C(=O)NC4CC4)c3)c12` [Compound 37, N-cyclopropyl-3-(3-cyclopropyl-5-((2-fluoro-4-iodophenyl)amino)-6,8-dimethyl-2,4,7-trioxo-3,4,6,7-tetrahydropyrido[4,3-d]pyrimidin-1(2H)-yl)benzamide], for which, in assay [1], the inhibition at 0.001 µM is 54.7%, the inhibition at 0.01 µM stood at 85.9% and the inhibition at 0.1 µM was determined as 92.4%. The IC80 in assay [2] is 1 to 3 nM.
In the case of `CCn1c(=O)c2c(Nc3ccc(I)cc3F)n(C)c(=O)c(C)c2n(-c2cccc(CC(=O)NC3CC3)c2)c1=O` [Compound 59, N-cyclopropyl-2-(3-(3-ethyl-5-((2-fluoro-4-iodophenyl)amino)-6,8-dimethyl-2,4,7-trioxo-3,4,6,7-tetrahydropyrido[4,3-d]pyrimidin-1(2H)-yl)phenyl)acetamide], the IC80 in assay [2] was 1 to 3 nM.
Same read-out and setting: with `CNC(=O)COc1cccc(-n2c(=O)n(C)c(=O)c3c(Nc4ccc(I)cc4F)n(C)c(=O)c(C)c32)c1` [Compound 60, 2-(3-(5-((2-fluoro-4-iodophenyl)amino)-3,6,8-trimethyl-2,4,7-trioxo-3,4,6,7-tetrahydropyrido[4,3-d]pyrimidin-1(2H)-yl)phenoxy)-N-methylacetamide] the figure was 0.1 to 0.9 nM; with `CCn1c(=O)c2c(Nc3ccc(I)cc3F)n(C)c(=O)c(C)c2n(-c2cccc(CCC(N)=O)c2)c1=O` [Compound 61, 3-(3-(3-ethyl-5-((2-fluoro-4-iodophenyl)amino)-6,8-dimethyl-2,4,7-trioxo-3,4,6,7-tetrahydropyrido[4,3-d]pyrimidin-1(2H)-yl)phenyl)propanamide], 1 to 3 nM; with `CCn1c(=O)c2c(Nc3ccc(I)cc3F)n(C)c(=O)c(C)c2n(-c2cccc(C(=O)NC3CC3)c2)c1=O` [Compound 62, N-cyclopropyl-3-(3-ethyl-5-((2-fluoro-4-iodophenyl)amino)-6,8-dimethyl-2,4,7-trioxo-3,4,6,7-tetrahydropyrido[4,3-d]pyrimidin-1(2H)-yl)benzamide], 4 to 100 nM.
On the same count and under the same terms, to `Cc1c(=O)n(C)c(Nc2ccc(I)cc2F)c2c(=O)n(C)c(=O)n(-c3cccc(C(=O)N4CCOCC4)c3)c12` [Compound 63, 5-((2-fluoro-4-iodophenyl)amino)-3,6,8-trimethyl-1-(3-(morpholine-4-carbonyl)phenyl)pyrido[4,3-d]pyrimidine-2,4,7(1H,3H,6H)-trione] belongs 1 to 3 nM.
Still for that read-out and setting: to `Cc1c(=O)n(C)c(Nc2ccc(I)cc2F)c2c(=O)n(C)c(=O)n(-c3cccc(C(=O)N4CCS(=O)(=O)CC4)c3)c12` [Compound 65, 1-(3-(1,1-dioxidothiomorpholine-4-carbonyl)phenyl)-5-((2-fluoro-4-iodophenyl)amino)-3,6,8-trimethylpyrido[4,3-d]pyrimidine-2,4,7(1H,3H,6H)-trione] belongs 0.1 to 0.9 nM; to `CCn1c(=O)c2c(Nc3ccc(I)cc3F)n(C)c(=O)c(C)c2n(-c2cccc(C(=O)N3CCS(=O)(=O)CC3)c2)c1=O` [Compound 66, 1-(3-(1,1-dioxidothiomorpholine-4-carbonyl)phenyl)-3-ethyl-5-((2-fluoro-4-iodophenyl)amino)-6,8-dimethylpyrido[4,3-d]pyrimidine-2,4,7(1H,3H,6H)-trione], 0.01 nM.
As for `CCn1c(=O)c2c(Nc3ccc(I)cc3F)n(C)c(=O)c(C)c2n(-c2cccc(CC(=O)N(C)C)c2)c1=O` [Compound 67, 2-(3-(3-ethyl-5-((2-fluoro-4-iodophenyl)amino)-6,8-dimethyl-2,4,7-trioxo-3,4,6,7-tetrahydropyrido[4,3-d]pyrimidin-1(2H)-yl)phenyl)-N,N-dimethylacetamide], the IC80 in assay [2] lay in the range of 0.1 to 0.9 nM.
On to `Cc1c(=O)n(C)c(Nc2ccc(I)cc2F)c2c(=O)n(C)c(=O)n(-c3cccc(CCC(N)=O)c3)c12` [Compound 68, 3-(3-(5-((2-fluoro-4-iodophenyl)amino)-3,6,8-trimethyl-2,4,7-trioxo-3,4,6,7-tetrahydropyrido[4,3-d]pyrimidin-1(2H)-yl)phenyl)propanamide], for which the IC80 in assay [2] was 1 to 3 nM.
Same read-out and setting: to `Cc1c(=O)n(C)c(Nc2ccc(I)cc2F)c2c(=O)n(C(C)C)c(=O)n(-c3cccc(C(=O)NC4CC4)c3)c12` [Compound 69, N-cyclopropyl-3-(5-((2-fluoro-4-iodophenyl)amino)-3-isopropyl-6,8-dimethyl-2,4,7-trioxo-3,4,6,7-tetrahydropyrido[4,3-d]pyrimidin-1(2H)-yl)benzamide] belongs greater than 100 nM; to `Cc1c(=O)n(C)c(Nc2ccc(I)cc2F)c2c(=O)n(C3COC3)c(=O)n(-c3cccc(OCC(N)=O)c3)c12` [Compound 71, 2-(3-(5-((2-fluoro-4-iodophenyl)amino)-6,8-dimethyl-3-(oxetan-3-yl)-2,4,7-trioxo-3,4,6,7-tetrahydropyrido[4,3-d]pyrimidin-1(2H)-yl)phenoxy)acetamide], 4 to 100 nM.
As for `Cc1c(=O)n(C)c(Nc2ccc(I)cc2F)c2c(=O)n(C(F)F)c(=O)n(-c3cccc(C(=O)NC4CC4)c3)c12` [Compound 72, N-cyclopropyl-3-(3-(difluoromethyl)-5-((2-fluoro-4-iodophenyl)amino)-6,8-dimethyl-2,4,7-trioxo-3,4,6,7-tetrahydropyrido[4,3-d]pyrimidin-1(2H)-yl)benzamide], in assay [2], the IC80 was 4 to 100 nM.
Same read-out and setting: with `Cc1c(=O)n(C)c(Nc2ccc(I)cc2F)c2c(=O)n(CC(O)CO)c(=O)n(-c3cccc(C(=O)NC4CC4)c3)c12` (stereo not shown) [Compound 73, N-cyclopropyl-3-(3-(2,3-dihydroxypropyl)-5-((2-fluoro-4-iodophenyl)amino)-6,8-dimethyl-2,4,7-trioxo-3,4,6,7-tetrahydropyrido[4,3-d]pyrimidin-1 (2H)-yl)benzamide] the figure was 4 to 100 nM; with `Cc1c(=O)n(C)c(Nc2ccc(I)cc2F)c2c(=O)n(CC(=O)O)c(=O)n(-c3cccc(C(=O)NC4CC4)c3)c12` [Compound 74, 2-(1-(3-(cyclopropylcarbamoyl)phenyl)-5-((2-fluoro-4-iodophenyl)amino)-6,8-dimethyl-2,4,7-trioxo-1,2,6,7-tetrahydropyrido[4,3-d]pyrimidin-3(4H)-yl)acetic acid], greater than 100 nM; with `Cc1c(=O)n(C)c(Nc2ccc(I)cc2F)c2c(=O)n(C)c(=O)n(-c3cccc([C@@H](O)C(N)=O)c3)c12` [Compound 75, (R)-2-(3-(5-((2-fluoro-4-iodophenyl)amino)-3,6,8-trimethyl-2,4,7-trioxo-3,4,6,7-tetrahydropyrido[4,3-d]pyrimidin-1(2H)-yl)phenyl)-2-hydroxyacetamide], 1 to 3 nM.
Regarding `Cc1c(=O)n(C)c(Nc2ccc(I)cc2F)c2c(=O)n(C)c(=O)n(-c3cccc([C@H](O)C(N)=O)c3)c12` [Compound 76, (S)-2-(3-(5-((2-fluoro-4-iodophenyl)amino)-3,6,8-trimethyl-2,4,7-trioxo-3,4,6,7-tetrahydropyrido[4,3-d]pyrimidin-1(2H)-yl)phenyl)-2-hydroxyacetamide], the IC80 in assay [2] lay in the range of 4 to 100 nM.
On the same count and under the same terms, to `Cc1c(=O)n(C)c(Nc2ccc(I)cc2F)c2c(=O)n(C)c(=O)n(-c3cccc(C4(C(N)=O)CC4)c3)c12` [Compound 79, 1-(3-(5-((2-fluoro-4-iodophenyl)amino)-3,6,8-trimethyl-2,4,7-trioxo-3,4,6,7-tetrahydropyrido[4,3-d]pyrimidin-1(2H)-yl)phenyl)cyclopropanecarboxamide] belongs 4 to 100 nM.

For orientation: inhibition means the percentage by which the read-out fell short of the control.
